Measurements reported in US10028992B2, “Methods of treating muscular dystrophy” (BOARD OF REGENTS OF THE NEVADA SYSTEM OF HIGHER EDUCATION …, priority 2012, dated 2018).

System: α7 integrin promoter
Experiment: muscle cell-based assay: α7βgal+/− myoblasts/myotubes, LacZ reporter, β-galactosidase cleavage of FDG
Set-up: species or system mouse; Results in α7+/− β-galactosidase assay: scale not given here
Details: Myoblasts
In short: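 Fluorescein generated from FDG by β-galactosidase reports α7 integrin promoter activity in differentiated myoblasts from α7+/− LacZ knock-in pups. Screening hits then went to dose-response, western blotting and a myostatin counterscreen.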

| Compound | Results in α7+/− β-galactosidase assay (0.5 uM) | Results in α7+/− β-galactosidase assay (1 uM) | Results in α7+/− β-galactosidase assay (5 uM) | Results in α7+/− β-galactosidase assay (10 uM) | Results in α7+/− β-galactosidase assay (20 uM) | Results in α7+/− β-galactosidase assay (40 uM) | Result in α7+/− β-galactosidase assay (0.5 uM) | Result in α7+/− β-galactosidase assay (1 uM) | Result in α7+/− β-galactosidase assay (5 uM) | Result in α7+/− β-galactosidase assay (10 uM) | Result in α7+/− β-galactosidase assay (20 uM) | Result in α7+/− β-galactosidase assay (40 uM) |
| --- | --- | --- | --- | --- | --- | --- | --- | --- | --- | --- | --- | --- |
| Cc1ccc2c(c1)/C(=C/c1ccco1)C(=O)N2 [drawing 696] | 0.2035 | 0.02005 | 0.2293 | 0.07554 | 0.1241 | 0.1026 | – | – | – | – | – | – |
| O=C1CCC(C(=O)N2CCSCC2)CN1Cc1ccc(Cl)cc1 (stereo not drawn) [drawing 697] | 0.1419 | −0.02657 | 0.2626 | 0.4599 | 0.2652 | 0.222 | – | – | – | – | – | – |
| c1ccc(-c2cn3c4c(sc3n2)CCCC4)cc1 [drawing 698] | 0.1572 | 0.06589 | 0.03743 | 0.2239 | −0.06232 | −0.1797 | – | – | – | – | – | – |
| COc1ccccc1CC(=O)Nc1cc(S(=O)(=O)N2CCOCC2)ccc1N1CCOCC1 [drawing 699] | 0.122 | −0.02918 | 0.0982 | 0.2162 | −0.2175 | −0.3265 | – | – | – | – | – | – |
| COc1ccccc1/C=C1\C(=O)Nc2ccccc21 [drawing 700] | 0.2078 | 0.1004 | 0.141 | 0.312 | −0.00605 | −0.06928 | – | – | – | – | – | – |
| CN1C(=O)N(CC(=O)N2CCN(S(=O)(=O)c3ccc(Cl)s3)CC2)C(=O)C12CCCCC2 [drawing 701] | 0.1065 | 0.03367 | 0.1338 | 0.2611 | −0.306 | −0.5075 | – | – | – | – | – | – |
| Cn1cc(CN2CCC(C(=O)Nc3cccc(-c4cscn4)c3)CC2)cn1 [drawing 702] | 0.1618 | 0.05749 | 0.02884 | 0.2457 | −0.3975 | −0.5369 | – | – | – | – | – | – |
| O=C1Cc2ccccc2/C1=C\c1ccc([N+](=O)[O-])cc1 [drawing 703] | 0.04429 | −0.00937 | 0.02036 | 0.1452 | −0.2086 | −0.4972 | – | – | – | – | – | – |
| CCCC(=O)OCC(=O)c1[nH]c(C)c(C(C)=O)c1C [drawing 704] | 0.1272 | 0.03672 | 0.01568 | 0.2296 | −0.2776 | −0.5017 | – | – | – | – | – | – |
| CCO/C(C)=C1\C(=O)Nc2ccccc21 [drawing 705] | −0.00711 | 0.04915 | 0.06742 | 0.09535 | −0.0389 | −0.1063 | – | – | – | – | – | – |
| COc1ccc(C(=O)Nc2ccc(Cl)cn2)cc1Cl [drawing 706] | – | – | – | – | – | – | 0.1451 | 0.1676 | −0.1344 | −0.2645 | −0.7598 | −0.8234 |
| CCOc1ccccc1NC(=O)c1cccc2c1C(=O)N(C1CCCCC1)C2 [drawing 707] | – | – | – | – | – | – | 0.2793 | 0.1772 | −0.01616 | 0.02001 | 0.1258 | 0.02179 |
| CCOC(=O)C1CCCN(C(=O)CNS(=O)(=O)c2ccc(Br)s2)C1 (stereo not drawn) [drawing 708] | – | – | – | – | – | – | −0.01823 | 0.07424 | −0.1417 | −0.1278 | −0.1459 | −0.2189 |
| Cc1nnc(SCC(=O)c2ccc(Br)cc2)s1 [drawing 709] | – | – | – | – | – | – | 0.3789 | 0.2434 | 0.08324 | 0.1001 | 0.111 | −0.07647 |
| Cn1ccc(C(=O)Nc2cccnc2Cl)n1 [drawing 710] | – | – | – | – | – | – | 0.1419 | 0.09145 | 0.0569 | 0.1922 | −0.0349 | −0.1785 |
| CCOC(=O)c1sc(=N)n(-c2ccc(OC)cc2)c1C [drawing 711] | – | – | – | – | – | – | 0.2274 | 0.1661 | −0.01196 | 0.01787 | −0.3971 | −0.6044 |
| COc1c(Cl)cc(/C=C2\C(=O)Nc3ccccc32)cc1Cl [drawing 712] | – | – | – | – | – | – | 0.2725 | 0.2417 | 0.01335 | 0.04886 | 0.1098 | −0.01132 |
| COc1c(Cl)cc(/C=C2\C(=O)Nc3ccccc32)cc1Cl [drawing 713] | – | – | – | – | – | – | 0.3543 | 0.1322 | −0.0815 | −0.2165 | −0.302 | −0.4698 |
| CC(=O)Oc1c(Cl)cc(/C=C2\C(=O)Nc3ccccc32)cc1Cl [drawing 714] | – | – | – | – | – | – | 0.1697 | −0.08406 | 0.02082 | 0.02563 | −0.00439 | −0.1892 |
| CCN(CC)CCNC(=O)c1c(C)[nH]c(CC2C(=O)Nc3ccc(F)cc32)c1C (stereo not drawn) [drawing 715] | – | – | – | – | – | – | −0.1627 | 0.03203 | −0.6776 | −0.9863 | −0.9859 | −0.9872 |
| O=C1Nc2ccccc2/C1=C1\Nc2ccccc2C1=O [drawing 716] | – | – | – | – | – | – | 0.06101 | 0.0859 | −0.394 | −0.2837 | −0.157 | −0.1933 |
| Cc1[nH]c(/C=C2\C(=O)Nc3ccccc32)c(C)c1CCC(=O)O [drawing 717] | – | – | – | – | – | – | 0.01086 | 0.05675 | −0.0938 | −0.1338 | −0.04064 | −0.0832 |
| Cc1cc(C)c(/C=C2\C(=O)Nc3ccccc32)[nH]1 [drawing 718] | – | – | – | – | – | – | 0.03555 | 0.05336 | −0.2683 | −0.3603 | −0.2204 | −0.3534 |
| Cc1cc(C)c(/C=C2\C(=O)Nc3ccccc32)[nH]1 [drawing 720] | – | – | – | – | – | – | −0.06315 | −0.0048 | −0.2673 | −0.3421 | −0.3332 | −0.4797 |
| Cc1cc(C)c(/C=C2\C(=O)Nc3ccccc32)[nH]1 [drawing 721] | – | – | – | – | – | – | −0.05673 | −0.01961 | −0.2468 | −0.2855 | −0.1121 | −0.2422 |
| O=C1Nc2ccccc2/C1=C1/Nc2ccccc2/C1=N\O [drawing 722] | – | – | – | – | – | – | 0.1752 | 0.3255 | −0.404 | −0.681 | −0.6914 | −0.8176 |
| CCN(CC)CCNC(=O)c1c(C)[nH]c(CC2C(=O)Nc3ccc(F)cc32)c1C (stereo not drawn) [drawing 723] | – | – | – | – | – | – | 0.02287 | 0.01135 | −0.471 | −0.913 | −0.9852 | −0.9864 |
| Cc1[nH]c(/C=C2\C(=O)Nc3ccc([S+](=O)([O-])Cc4c(Cl)cccc4Cl)cc32)c(C)c1C(=O)C1CCCN1CN1CCCC1 (stereo not drawn) [drawing 725] | – | – | – | – | – | – | 0.05199 | 0.07607 | −0.1295 | −0.4121 | −0.9816 | −0.9806 |
